Results reported in patent publication US12209072B2, “Cyclopentyl acids as LPA antagonists” (BRISTOL-MYERS SQUIBB COMPANY, priority 2018, dated 2025).
One block for each molecule: values may come before it.

Key:
[1] = biological target: T1, human LPA1 (Homo sapiens, UniProt Q92633); assay: LPA1 functional antagonist assay (LPA-induced calcium flux); assay type: cell-based; settings: CHO cells overexpressing human LPA1; inhibition of calcium flux induced by 10 nM LPA; read-out: hLPA1 IC50
T1 construct: expressed in transfected cells; host or cells: Chinese hamster ovary (CHO) cells
In short: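 CHO cells overexpressing human LPA1, loaded with calcium dye, given compound (0.08 nM–5 μM final, 0.5% DMSO) for 20 min at room temperature in HBSS/HEPES with 0.1% fatty-acid-free BSA, then stimulated with 10 nM LPA. IC50 defined as 50% inhibition of LPA-induced calcium flux, from 4-parameter logistic fit.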

[2] = tested on: nerve-injured mice; settings: pretreatment; cited from earlier work
[3] = tested on: human foetal lung fibroblasts; settings: cited from earlier work
[4] = tested on: mouse epithelial renal cell line, MCT; settings: co-treatment with LPA, MCT cells; cited from earlier work
[5] = tested on: pancreatic cancer cell lines; settings: cited from earlier work
[6] = tested on: highly peritoneal metastatic pancreatic cancer cell line; settings: cited from earlier work
[7] = tested on: UUO mice; settings: compared with LPA1 (-/-) mice; cited from earlier work

T1 sequence (Q92633 whole entry): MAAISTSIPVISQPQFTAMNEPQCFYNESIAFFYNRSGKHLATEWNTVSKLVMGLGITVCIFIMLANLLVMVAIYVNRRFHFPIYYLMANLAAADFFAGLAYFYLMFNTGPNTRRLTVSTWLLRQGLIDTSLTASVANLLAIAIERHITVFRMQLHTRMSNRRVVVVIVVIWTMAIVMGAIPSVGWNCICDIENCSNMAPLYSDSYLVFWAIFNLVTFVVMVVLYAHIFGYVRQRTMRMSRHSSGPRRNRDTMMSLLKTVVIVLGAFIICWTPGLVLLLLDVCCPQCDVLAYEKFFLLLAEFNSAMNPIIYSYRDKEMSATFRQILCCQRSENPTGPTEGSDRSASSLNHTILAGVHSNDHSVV

SMILES: Cc1nc(-c2nnn(C)c2COC(=O)N(C)CC2CCC2)ccc1O[C@H]1CC[C@H](CC(=O)O)C1 (single isomer, unassigned) [Example 49, (±)-trans-2-[3-({6-[5-({[(cyclobutyl-methyl)(methyl)carbamoyl]oxy}methyl)-1-methyl-1H-1,2,3-triazol-4-yl]-2-methylpyridin-3-yl}oxy)cyclopentyl]acetic acid]
IC50 [1]: 13 nM

SMILES: C[C@@H](N)[C@H]1CC[C@H](C(=O)Nc2ccncc2)CC1 [Example Y-27632]
allodynia and hyperalgesia [2]: completely abolished

SMILES: Cc1noc(-c2ccc(CSCCC(=O)O)cc2)c1NC(=O)OC(C)c1ccccc1Cl (stereo not shown) [Ki16425]
chemotaxis of human foetal lung fibroblasts induced by BAL obtained from IPF patients [3]: blocked
LPA-induced increase in expression of the profibrotic cytokine CTGF [4]: almost completely suppressed
in vitro migration in response to LPA and peritoneal fluid (ascites) from pancreatic cancer patients [5]: effectively blocked
LPA-induced and ascites-induced invasion activity [6]: blocked
development of renal fibrosis in UUO mice [7]: closely resembled the profile of LPA1 (−/−) mice

More lines, now with the values ahead:

IC50 [1]: 28 nM
SMILES: Cc1nc(-c2nnn(C)c2COC(=O)N(C)CC2CCC2)ccc1O[C@H]1CC[C@H](C(=O)O)C1 (single isomer, unassigned) [Example 78, Trans-(1,3)-3-({6-[5-({[(cyclobutyl-methyl)(methyl)carbamoyl]oxy}methyl)-1-methyl-1H-1,2,3-triazol-4-yl]-2-methylpyridin-3-yl}oxy)cyclopentane-1-carboxylic acid]

IC50 [1]: 670 nM
SMILES: Cc1nc(-c2nnn(C)c2COC(=O)N(C)CC2CCC2)ccc1O[C@H]1CC[C@H](C(=O)O)C1 (single isomer, unassigned) [Example 79, Trans-(1,3)-3-({6-[5-({[(cyclobutyl-methyl) (methyl)carbamoyl]oxy}methyl)-1-methyl-1H-1,2,3-triazol-4-yl]-2-methylpyridin-3-yl}oxy)cyclo-pentane-1-carboxylic acid]

IC50 [1]: 26 nM
SMILES: Cc1noc(-c2ccc(OC3CCC(C(=O)O)C3)cn2)c1CNc1nccc(-c2ccccc2)n1 (stereo not shown) [Example 42, 3-((6-(3-methyl-4-(((4-phenylpyrimidin-2-yl)amino)methyl)isoxazol-5-yl)pyridin-3-yl)oxy)cyclopentane-1-carboxylic Acid]
